# Like-named read-outs stand apart in the source and are kept apart here.
# Assays:
# T. inkin (ATCC 18020) = assay: Frequency of occurrence of spontaneous mutants; format: cell-based, Trichosporon inkin; conditions: four times the broth macrodilution MIC
# Procedure: (§1) Determination of the frequency of occurrence of spontaneous mutants was performed as previously described. Overnight cultures of C neoformans (ATCC 90112), C. albicans (ATCC 90028) and Trichosporon inkin (ATCC 18020) were diluted to an OD530 nm=0.3. 0.1 ml of each preparation was spread onto SDA plates containing four or eight times the broth macrodilution MIC of TMPN. The starting inoculum for each organism was also diluted and plated onto drug-free SDA plates for determination of cfu/ml. After a 48 h incubation at the appropriate temperature (see Fungal Strains section above), the number of colonies on drug-supplemented SDA was counted. The frequency of occurrence of spontaneous mutants was calculated by dividing the number of colonies on drug-containing plates by the number of colonies in the inoculum. When no colonies were visualized on drug-containing plates, the calculation was (<) 1 colony divided by the number of colonies in the inoculum.
# C. parapsilosis (10) = assay: Broth macrodilution MIC/MFC; format: cell-based, Candida parapsilosis
# Procedure: (§2) TMPN was screened against yeasts by the broth macrodilution assay according to the NCCLS [7]. Yeasts were suspended and diluted as recommended to yield final inocula ranging from 0.5-2.5×10^3 cfu/ml. Tests were performed in sterile 12 by 75 mm plastic tubes containing two-fold dilutions of TMPN in 0.165 M morpholinepropanesulfonic acid buffered RPMI 1640 medium (pH 7.0). One tube was again left drug free (but contained an equivalent volume of DMSO) for a turbidity control. Tubes were incubated without agitation at the appropriate temperature (see Fungal Strains section above). MICs were determined after 72 h for Cryptococcus and after 48 h for other yeast genera. The MIC was defined as the lowest concentration of TMPN that inhibited all visible growth of the test organism (optically clear).
# (§3) Minimum fungicidal concentrations (MFCs) were determined by subculturing 0.1 ml from each tube with no visible growth in the MIC broth macrodilution series onto the appropriate drug-free plates (see Fungal Strains section above).
# [1] = tested on: C. parapsilosis ATCC 22019; assay: Broth macrodilution MIC/MFC; format: cell-based, Candida parapsilosis
# Procedure: as §2, §3
# T. inkin ATCC 18020 = assay: Broth macrodilution MIC/MFC; format: cell-based, Trichosporon inkin; conditions: for MFC: Trichosporon inkin ATCC 18020; for MIC: Trichosporon inkin
# Procedure: as §2, §3
# Possible host effects were also evaluated. Broth macrodilution assays were performed with RPMI medium prepared at pH 5, pH 6, and pH 7, and in RPMI medium with and without 50% normal human serum (Lampire Biological Labs). The pH experiments were performed twice on separate days.
# C. albidus ATCC 34140 = assay: Broth macrodilution MIC/MFC; format: cell-based, Cryptococcus albidus
# Procedure: as §2, §3
# C. albidus ATCC 66030 = assay: Broth macrodilution MIC/MFC; format: cell-based, Cryptococcus albidus
# Procedure: as §2, §3
# C. albidus ATCC 40666 = assay: Broth macrodilution MIC/MFC; format: cell-based, Cryptococcus albidus
# Procedure: as §2, §3
# bovine brain tubulin = tested on: T1, bovine brain tubulin; assay: Colchicine binding assay; conditions: 10 min at 37° C.
# T1 construct: Electrophoretically homogeneous bovine brain tubulin [12]
# Procedure: Electrophoretically homogeneous bovine brain tubulin [12] was used in studies to evaluate the effects of TMPN on in vitro tubulin polymerization and the binding of […] (Dupont-NEN) to tubulin. These studies were performed as described previously. In the polymerization assay, varying drug concentrations were added to 1 mg/ml tubulin to determine the amount of drug that would inhibit the extent of the reaction by 50% (20 min incubation at 30° C.) (IC50 value). In the colchicine binding assay, the effect of varying drug concentrations on the binding of 2 μg/ml colchicine to 100 μg/ml tubulin was measured after 10 min at 37° C. (control reaction about 50% complete).
# fungal = assay: Frequency of fungal spontaneous mutations to resistance (summary); format: cell-based; conditions: summary statement
# Procedure: as §1
# C. tropicalis (9) = assay: Broth macrodilution MIC/MFC; format: cell-based, Candida tropicalis
# Procedure: as §2, §3
# [2] = tested on: R. nigracans (ASU culture collection); assay: Broth macrodilution MIC/MFC, filamentous fungi; format: cell-based, Rhizopus nigracans
# Procedure: Susceptibility testing of filamentous fungi was also conducted. Broth macrodilution susceptibility testing of P. lilacinus, Rhizopus spp. and Aspergillus spp. was performed in accordance with a proposed standardized procedure with slight modification. To induce conidium and sporangiospore formation, fungi were grown on PDA slants at 35° C. for 6 days (P. lilacinus, Rhizopus spp., all Aspergillus species except A. nidulans) or 3 days (A. nidulans). Fungal slants were covered with sterile 0.85% NaCl (P. lilacinus, Rhizopus spp., all Aspergillus species except A. nidulans) or 0.05% Tween 80 (A. nidulans), and suspensions were made by gently probing the colonies with the tip of a sterile Pasteur pipette. The resulting mixture of hyphal fragments and conidia or sporangiospores was withdrawn and transferred to a sterile clear microcentrifuge tube, and heavy particles were allowed to settle for 10 min. […] Susceptibility to TMPN was then determined by broth macrodilution as described above for yeast isolates. […]
# as §3
smiles,measurement,setting,value
"COc1cc(C=C[N+](=O)[O-])cc(OC)c1OC [TMPN, 1-(3′,4′,5′-trimethoxyphenyl)-2-nitro-ethylene]",frequency of occurrence of single-step resistant mutants,T. inkin (ATCC 18020),≤ 10^−6
same,MIC Range,C. parapsilosis (10),16 to 32 µg/mL
same,MFC Range,[1],32 µg/mL
same,MIC Range,[1],16 µg/mL
same,MFC,"T. inkin ATCC 18020; ATCC18020, pH 6, pH6, read-out: MFC",16 µg/mL
same,MFC,"T. inkin ATCC 18020; ATCC18020, pH 7, pH7, read-out: MFC",16 µg/mL
same,MFC,"T. inkin ATCC 18020; ATCC18020, no serum, read-out: MFC",16 µg/mL
same,MFC,"T. inkin ATCC 18020; ATCC18020, pH 5, read-out: MFC",8 µg/mL
same,MFC Range,T. inkin ATCC 18020; T. inkin ATCC 18020,16 µg/mL
same,MIC Range,T. inkin ATCC 18020; T. inkin ATCC 18020,8 µg/mL
same,MFC,"T. inkin ATCC 18020; pH 5, repeat experiment",8 µg/mL
same,MFC,"T. inkin ATCC 18020; pH6, repeat experiment",16 µg/mL
same,MFC,"T. inkin ATCC 18020; pH7, repeat experiment",16 µg/mL
same,MIC,"T. inkin ATCC 18020; ATCC18020, Trichosporon inkin ATCC 18020, 50% human serum",> 64 µg/mL
same,MIC,"T. inkin ATCC 18020; ATCC18020, Trichosporon inkin ATCC 18020, no serum",8 µg/mL
same,MIC,"T. inkin ATCC 18020; ATCC18020, pH 5, Trichosporon inkin ATCC 18020, pH 5",4 µg/mL
same,MIC,"T. inkin ATCC 18020; ATCC18020, pH 5, Trichosporon inkin ATCC 18020, pH 5, repeat experiment",4 µg/mL
same,MIC,"T. inkin ATCC 18020; ATCC18020, pH 6, Trichosporon inkin ATCC 18020, pH6",8 µg/mL
same,MIC,"T. inkin ATCC 18020; ATCC18020, pH 6, Trichosporon inkin ATCC 18020, pH6, repeat experiment",8 µg/mL
same,MIC,"T. inkin ATCC 18020; ATCC18020, pH 7, Trichosporon inkin ATCC 18020, pH7",8 µg/mL
same,MIC,"T. inkin ATCC 18020; ATCC18020, pH 7, Trichosporon inkin ATCC 18020, pH7, repeat experiment",8 µg/mL
same,MFC Range,C. albidus ATCC 34140,32 µg/mL
same,MIC Range,C. albidus ATCC 34140,32 µg/mL
same,MFC Range,C. albidus ATCC 66030,16 µg/mL
same,MIC Range,C. albidus ATCC 66030,8 µg/mL
same,MFC Range,C. albidus ATCC 40666,32 µg/mL
same,MIC Range,C. albidus ATCC 40666,8 µg/mL
same,inhibition of [^3H]colchicine binding to tubulin,bovine brain tubulin; 5 μM (combretastatin A-4 1.6 μg/ml; TMPN 1.2 μg/ml),13±0.5%
same,inhibition of [^3H]colchicine binding to tubulin,bovine brain tubulin; 12 μg/ml (50 uM),69±0.5%
same,frequency of fungal spontaneous mutations to resistance,fungal,< 10^−6
same,MIC Range,C. tropicalis (9),32 to 64 µg/mL
same,MFC Range,[2],>64 µg/mL
same,MIC Range,[2],32 µg/mL
